Results published in patent publication US20250268909A1, “Combination Therapy” (US Oncology Corporate, Inc., priority 2022, published 2025).
Where “and” joins values, the source holds several entries; their conditions need not be identical. Identical values can stand only once.

Tests used:
[1] = phase II trial, adverse events (safety population, CTCAE v4.03); assay type: in vivo, human
Method: Safety was assessed throughout the study. Adverse events were graded and reported according to the National Cancer Institute Common Terminology Criteria for Adverse Events (CTCAE version 4.03).
Incidence and grades of AEs for all patients were analyzed using the safety population which included all patients (eligible and ineligible) who received at least 1 dose of study drug. Toxic effects were reported and tabulated by numbers and frequencies for all related AEs. SAS statistical software version 9.4 (SAS Institute) was used for all data analysis. Data were analyzed from March through May 2019.

[2] = tested on: ER-positive, HER2-negative metastatic or locally recurrent breast cancer; assay: randomized phase II trial, ER+/HER2− cohort, efficacy; assay type: in vivo, human
Source text: Other information about this phase II clinical trial is included in O'Shaughnessy et al., JAMA Network Open. 2021, 4(4):e214103, the entire contents of which are incorporated herein by reference.
Eligible patients were postmenopausal women aged 18 years or older with metastatic or unresectable locally recurrent breast cancer that was histologically confirmed as ER+/HER2− invasive breast cancer (any progesterone receptor status), with Ki67 greater than 15% in primary or metastatic tissue, or grade 3 TNBC, to enrich for more highly proliferative cancers that may be more dependent on AURKA. HER2− negative was defined as immunohistochemistry (IHC) status of 0, 1+, or 2+(if IHC was 2+, a negative FISH test was required with a ratio <2.0 and an average HER2 copy number <4.0 signals/cell). ER-negative and progesterone receptor (PR)-negative status was defined as ER and PR less than 1% nuclei positive by IHC. […] An Eastern Cooperative Group (ECOG) performance status of 0 or 1 and adequate hematologic, cardiac, renal, and liver function were required. Eligible patients were required to have measurable disease by Response Evaluation Criteria in Solid Tumors (RECIST v 1.1) criteria, or lytic or mixed blastic/lytic bone-only disease. Patients with untreated or progressing brain metastases, or those who required corticosteroids, were not eligible.
Administration of 5 μg/kg filgrastim was allowed for treatment-limiting neutropenia, and loperamide was used to treat diarrhea but was not allowed prophylactically in cycle 1.
Computed tomography (CT) of chest, abdomen, and pelvis was performed at screening. Chest and abdominal CT imaging were then performed every 8 weeks after initiation of treatment for the first 32 weeks of treatment and every 12 weeks thereafter for the duration of the treatment period, and at End of Treatment (EoT). Pelvic CT imaging was obtained at subsequent tumor assessments only if pelvic metastases were identified at screening. Bone scans were obtained on all patients at screening and then every 12 weeks in patients with bone metastases on their baseline bone scan.
Patients were stratified as ER-positive, HER2-negative cohort and TN cohort based on results of ER, progesterone receptor, and HER2 measurements on their metastatic tissue, or, if not available, on their primary breast cancer tissue.
Patients' baseline demographic and disease characteristics were summarized for the intent-to-treat population, which included all patients registered on study and were described by means with SDs and medians with ranges for continuous variables and by numbers with percentages for categorical variables. PFS was defined as the time from date of registration in the study to the date of first progression of disease or the date of death. Patients whose disease had not progressed were censored at the last contact date. OS was measured from the date of registration to the date of death. PFS and OS were estimated using Kaplan-Meier methods with 95% CIs in the intent-to-treat population and compared by log-rank tests.
The protocol-defined evaluable population included all eligible patients who received at least 1 dose of study drug. CBR and ORR were examined using univariate and multivariate approaches with Fisher exact tests and the logistic regression models. The 95% CIs were estimated for CBR and ORR assuming binomial distribution. A χ^2 test was used to estimate the differences between CBRs and ORRs in the two arms.

[3] = treatment-related, ER+/HER2− and TN cohorts
[4] = ER+/HER2− cohort, evaluable patients (P+A n=58, P n=62)

For `CC(=O)O[C@H]1C(=O)[C@@]2(C)[C@H]([C@H](OC(=O)c3ccccc3)[C@]3(O)C[C@H](OC(=O)[C@H](O)[C@@H](NC(=O)c4ccccc4)c4ccccc4)C(C)=C1C3(C)C)[C@]1(OC(C)=O)CO[C@@H]1C[C@@H]2O` [Paclitaxel, (2α,4α,5β,7β,10β,13α)-4,10-Bis(acetyloxy)-13-{[(2R,3S)-3-(benzoylamino)-2-hydroxy-3-phenylpropanoyl]oxy}-1,7-dihydroxy-9-oxo-5,20-epoxytax-11-en-2-yl benzoate], the “grade 3 or 4 anemia, patients” value ([1]; all patients combined) was 1.2%, the “grade 3 or 4 diarrhea, patients” value ([1]; all patients combined) was 0% and the “grade 3 or 4 neutropenia, patients” value ([1]; all patients combined) was 16.4%. The “grade 3 or 4 stomatitis or oral mucositis, patients” value ([1]; all patients combined) was 0%, the “grade 3 or 4 neuropathy, patients” value ([1]; in vivo) was 11.40% and the “patients who received standard-dose (5 μg/kg) filgrastim” value ([1]; in vivo) was 15.70%. For the same compound, the “Anemia Grade1” value [1, 3] was 5 (5.9) n (%), the “Anemia Grade2” value [1, 3] was 5 (5.9) n (%) and the “Anemia Grade3” value [1, 3] was 1 (1.2) n (%). For the same compound, the “Anemia Grade4” value [1, 3] was 0 n (%), the “Anemia Total” value [1, 3] was 11 (12.9) n (%) and the “Diarrhea Grade1” value [1, 3] was 9 (10.6) n (%). The “Diarrhea Grade2” value [1, 3] was 2 (2.4) n (%), the “Diarrhea Grade3” value [1, 3] was 0 n (%) and the “Diarrhea Grade4” value [1, 3] was 0 n (%). The “Diarrhea Total” value [1, 3] was 11 (12.9) n (%), the “Dizziness Grade1” value [1, 3] was 2 (2.4) n (%) and the “Dizziness Grade2” value [1, 3] was 0 n (%). The “Dizziness Grade3” value [1, 3] was 0 n (%), the “Dizziness Grade4” value [1, 3] was 0 n (%) and the “Dizziness Total” value [1, 3] was 2 (2.4) n (%). For the same compound, the “Fatigue Grade1” value [1, 3] was 26 (30.6) n (%), the “Fatigue Grade2” value [1, 3] was 6 (7.1) n (%) and the “Fatigue Grade3” value [1, 3] was 2 (2.4) n (%). The “Fatigue Grade4” value [1, 3] was 0 n (%), the “Fatigue Total” value [1, 3] was 34 (40.0) n (%) and the “Febrile neutropenia Grade1” value [1, 3] was 0 n (%). The “Febrile neutropenia Grade2” value [1, 3] was 0 n (%), the “Febrile neutropenia Grade3” value [1, 3] was 0 n (%) and the “Febrile neutropenia Grade4” value [1, 3] was 0 n (%). For the same compound, the “Febrile neutropenia Total” value [1, 3] was 0 n (%), the “Headache Grade1” value [1, 3] was 4 (4.7) n (%) and the “Headache Grade2” value [1, 3] was 1 (1.2) n (%). The “Headache Grade3” value [1, 3] was 0 n (%), the “Headache Grade4” value [1, 3] was 0 n (%) and the “Headache Total” value [1, 3] was 5 (5.9) n (%). The “Leukopenia Grade1” value [1, 3] was 2 (2.4) n (%), the “Leukopenia Grade2” value [1, 3] was 1 (1.2) n (%) and the “Leukopenia Grade3” value [1, 3] was 2 (2.4) n (%). For the same compound, the “Leukopenia Grade4” value [1, 3] was 0 n (%), the “Leukopenia Total” value [1, 3] was 5 (5.9) n (%) and the “Mucositis oral Grade1” value [1, 3] was 4 (4.7) n (%). For the same compound, the “Mucositis oral Grade2” value [1, 3] was 0 n (%), the “Mucositis oral Grade3” value [1, 3] was 0 n (%) and the “Mucositis oral Grade4” value [1, 3] was 0 n (%). For the same compound, the “Mucositis oral Total” value [1, 3] was 4 (4.7) n (%), the “Nausea Grade1” value [1, 3] was 19 (22.4) n (%) and the “Nausea Grade2” value [1, 3] was 4 (4.7) n (%). For the same compound, the “Nausea Grade3” value [1, 3] was 1 (1.2) n (%), the “Nausea Grade4” value [1, 3] was 0 n (%) and the “Nausea Total” value [1, 3] was 24 (28.2) n (%). The “Neuropathy Grade1” value [1, 3] was 9 (12.9) n (%), the “Neuropathy Grade2” value [1, 3] was 8 (11.4) n (%) and the “Neuropathy Grade3” value [1, 3] was 8 (11.4) n (%). For the same compound, the “Neuropathy Grade4” value [1, 3] was 0 n (%), the “Neuropathy Total” value [1, 3] was 25 (35.7) n (%) and the “Neutropenia Grade1” value [1, 3] was 1 (1.2) n (%). For the same compound, the “Neutropenia Grade2” value [1, 3] was 3 (3.5) n (%), the “Neutropenia Grade3” value [1, 3] was 11 (12.9) n (%) and the “Neutropenia Grade4” value [1, 3] was 3 (3.5) n (%). The “Neutropenia Total” value [1, 3] was 18 (21.2) n (%), the “Stomatitis Grade1” value [1, 3] was 7 (8.2) n (%) and the “Stomatitis Grade2” value [1, 3] was 0 n (%). For the same compound, the “Stomatitis Grade3” value [1, 3] was 0 n (%), the “Stomatitis Grade4” value [1, 3] was 0 n (%) and the “Stomatitis Total” value [1, 3] was 7 (8.2) n (%). For the same compound, the “Thrombocytopenia Grade1” value [1, 3] was 0 n (%), the “Thrombocytopenia Grade2” value [1, 3] was 0 n (%) and the “Thrombocytopenia Grade3” value [1, 3] was 0 n (%). The “Thrombocytopenia Grade4” value [1, 3] was 0 n (%), the “Thrombocytopenia Total” value [1, 3] was 0 n (%) and the “median (IQR) PFS in patients previously treated with palbociclib” value ([2]; 30 patients pretreated with palbociclib for MBC (16 P, 14 P+A), listed as paclitaxel alone) was 5.6 (3.0-10.6) months and 5.6 months. The “CBR in patients pretreated with palbociclib” value ([2]; ER+/HER2− cohort) was 37.5%, the “Best Overall Response: CR” value [2, 4] was 0% and the “Best Overall Response: PD” value [2, 4] was 8 (12.9) %. For the same compound, the “Best Overall Response: SD” value [2, 4] was 33 (53.2) %, the “CBR (CR + PR + SD ≥ 6 months)” value ([2]; ER+/HER2− cohort, evaluable patients (P+A n=58, P n=62), listed as P) was 35 (56.5) % and the “CBR (CR + PR + SD ≥ 6 months)” value ([2]; ER+/HER2− cohort, evaluable patients (P+A n=58, P n=62), listed as paclitaxel alone) was 56.5%. The “estimated PFS at 12 months” value ([2]; ER-positive, HER2-negative MBC) was 15.4%, the “median (IQR) PFS” value ([2]; ER-positive, HER2-negative MBC, intent-to-treat, listed as paclitaxel alone) was 7.1 (3.8-10.6) months and 7.1 months and the “median (IQR) OS” value ([2]; median follow-up 22 months) was 25.1 (11.0-31.4) months.
